The subject of assay [1] is T. brucei cells. Put plainly: AlamarBlue cell viability / growth inhibition of T. brucei. As to conditions: 10 to 60 μM, even at 60 µM, 72 h.
Experimental: Synergy H1 microplate reader (BioTek) was used with 560/590 nm (excitation/emission) filter settings and relative fluorescence unit (RFU) values were obtained. The percentage of viable cells were calculated from the RFU values.
Trypanosome cells were seeded at 1 × 10^3 cells/ml density in 180 µl in a 96-well culture plate in triplicate. […] DMSO was used as a vehicle control at 0.0075%.
The test system of assay [2] is human non-small cell lung cancer H460 cells. As to conditions: read-out: IC50, inhibition of proliferation; cited from earlier work.

Molecules are shown by their SMILES. Entries after “also recorded” stand apart in the source; their conditions may differ.

Regarding `CCOc1ccc2cc(C3CC(c4ccc(Br)cc4)=NN3C(=O)CCC(=O)O)c(Cl)nc2c1` (centres unmarked) [TDRL-505, reference compound], the “Effect on T. brucei proliferation” value in assay [1] is listed as “did not observe any effect; also recorded: did not show any toxicity”. In addition, in assay [2], the IC50 was 30.8 µM.

These data come from article PMC10359466, “Identification of a small-molecule inhibitor that selectively blocks DNA-binding by Trypanosoma brucei replication protein A1” (Nature Communications, 2023).
